Source: patent publication US20230295157A1, “3-(1H-IMIDAZOL-2-YL)-2,3,8,8A-TETRAHYDROINDOLIZIN-5(1H)-ONE DERIVATIVES USEFUL AS FACTOR XIA INHIBITORS” (JANSSEN PHARMACEUTICA NV, priority 2020, published 2023)
Like-named read-outs stand apart in the source and are kept apart here.

Assays:
[1] = target: Factor XIa (Homo sapiens (Human), UniProt P03951); assay: Factor XIa inhibition assay (FLINT) utilizing a fluorophore-quencher pair peptide substrate; type: biochemical; settings: 30 min preincubation, kinetic reads over 30 min, read-out: FXIa Kin Inh IC50
Method in brief: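 FXIa ([…]) preincubated 30 min with compound (11-point 3-fold dilution, top 100 nM, 2% DMSO), then 15 μM quenched FXI Arg146-based peptide added; Tris pH 7.5, CaCl2, BSA, CHAPS. Fluorescence 485/520 nm read kinetically every 5 min over 30 min at RT; IC50 by 4-parameter fit.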

[2] = target: human plasma kallikrein (Homo sapiens (Human), UniProt P03952); assay: Kallikrein inhibition assay (FLINT) utilizing a quenched AMC peptide substrate; type: biochemical; settings: 30 min preincubation, read-out: Kallikrein Kin Inh IC50
Method in brief: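 Enzyme (2 nM final) pre-incubated 30 min at room temperature with compound (11-point, 3-fold, top 1 μM, 2% DMSO), then 50 μM Z-Gly-Pro-Arg-AMC added in Tris pH 7.5 buffer. Kinetic fluorescence 340/440 nm every 5 min over 30 min; IC50 from 4-parameter logistic fit.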

[3] = 5Fam-KLTRAETV-K5Tamra substrate 15 μM
[4] = kinetic reads over 30 min, Z-Gly-Pro-Arg-AMC substrate 50 μM
[5] = 5Fam-[…]-K5Tamra substrate 15 μM

Chain of Factor XIa (P03951 388-625): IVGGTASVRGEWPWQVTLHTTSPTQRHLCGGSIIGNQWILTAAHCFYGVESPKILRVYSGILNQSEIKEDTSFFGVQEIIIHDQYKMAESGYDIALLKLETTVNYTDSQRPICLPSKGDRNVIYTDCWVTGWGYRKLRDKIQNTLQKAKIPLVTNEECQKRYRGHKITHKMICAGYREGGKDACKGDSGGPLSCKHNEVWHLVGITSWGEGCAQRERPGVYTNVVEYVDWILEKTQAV
Chain of Factor XIa (P03951 19-387 partner): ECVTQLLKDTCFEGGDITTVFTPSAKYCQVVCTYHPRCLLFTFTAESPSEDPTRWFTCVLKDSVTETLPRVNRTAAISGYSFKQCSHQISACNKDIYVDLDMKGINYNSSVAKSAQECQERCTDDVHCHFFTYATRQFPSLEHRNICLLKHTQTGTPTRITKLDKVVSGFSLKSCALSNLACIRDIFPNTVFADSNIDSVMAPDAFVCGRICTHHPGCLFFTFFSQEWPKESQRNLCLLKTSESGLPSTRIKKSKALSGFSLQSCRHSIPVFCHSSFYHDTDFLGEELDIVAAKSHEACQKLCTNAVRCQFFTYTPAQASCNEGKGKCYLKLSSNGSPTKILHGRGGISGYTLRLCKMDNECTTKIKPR
Chain of human plasma kallikrein (P03952 391-638): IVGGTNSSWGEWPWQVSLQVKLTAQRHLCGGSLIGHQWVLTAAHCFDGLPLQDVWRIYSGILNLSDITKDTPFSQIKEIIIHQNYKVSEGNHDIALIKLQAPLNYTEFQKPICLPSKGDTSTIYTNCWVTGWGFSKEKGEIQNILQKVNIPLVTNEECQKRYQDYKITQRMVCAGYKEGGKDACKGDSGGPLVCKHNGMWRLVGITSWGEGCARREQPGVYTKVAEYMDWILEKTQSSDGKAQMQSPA
Chain of human plasma kallikrein (P03952 20-390 partner): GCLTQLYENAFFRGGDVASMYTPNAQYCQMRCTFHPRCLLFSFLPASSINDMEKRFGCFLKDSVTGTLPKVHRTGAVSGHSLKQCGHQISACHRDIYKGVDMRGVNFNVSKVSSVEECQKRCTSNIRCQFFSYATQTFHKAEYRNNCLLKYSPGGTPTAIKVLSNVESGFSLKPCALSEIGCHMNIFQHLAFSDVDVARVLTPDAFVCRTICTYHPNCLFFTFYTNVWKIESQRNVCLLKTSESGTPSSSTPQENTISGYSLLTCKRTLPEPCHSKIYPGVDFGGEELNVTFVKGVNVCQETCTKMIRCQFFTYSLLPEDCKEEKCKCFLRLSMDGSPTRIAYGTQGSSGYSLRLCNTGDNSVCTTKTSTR

## CN(C)C(=O)c1ccccc1-c1c[nH]c([C@@H]2CCC3CC(c4c(-n5cnnn5)ccc(Cl)c4F)=CC(=O)N32)n1 (stereo partly drawn) [Example 288, 2-(2-((3S)-7-(3-Chloro-2-fluoro-6-(1H-tetrazol-1-yl)phenyl)-5-oxo-1,2,3,5,8,8a-hexahydroindolizin-3-yl)-1H-imidazol-4-yl)-N,N-dimethylbenzamide]
[1]; [3]
  IC50: > 200 nM
[2]; μM, kinetic reads
  IC50: 1.1 µM

## Nc1ccc(-c2[nH]c([C@@H]3CC[C@@H]4CC(c5cc(Cl)ccc5-n5cnnn5)=CC(=O)N43)nc2F)c(F)n1 [Example 69, (3S,8aR)-3-(5-(6-amino-2-fluoropyridin-3-yl)-4-fluoro-1H-imidazol-2-yl)-7-(5-chloro-2-(1H-tetrazol-1-yl)phenyl)-2,3,8,8a-tetrahydroindolizin-5(1H)-one]
[1]; [3]
  IC50: 0.3 nM
[2]; [4]
  IC50: 0.0038 µM

## O=C1C=C(c2c(-n3cnnn3)ccc(Cl)c2F)C[C@@H]2CC[C@H](c3ncc(-c4ccnc(N5CCC[C@@H](O)C5)c4F)[nH]3)N12 (stereo in doubt) [Example 187, (3R,8aS)-7-(3-chloro-2-fluoro-6-(1H-tetrazol-1-yl)phenyl)-3-(5-(3-fluoro-2-((R)-3-hydroxypiperidin-1-yl)pyridin-4-yl)-1H-imidazol-2-yl)-2,3,8,8a-tetrahydroindolizin-5(1H)-one]
[1]; [3]
  IC50: 3.7 nM
[2]; [4]
  IC50: 0.0041 µM

## N#CC1(c2nccc(-c3cnc([C@@H]4CC[C@@H]5CC(c6c(-n7cnnn7)ccc(Cl)c6F)=CC(=O)N54)[nH]3)c2F)CC1 (single isomer, unassigned) [Example 139, 1-(4-(2-((3S,8a*R)-7-(3-chloro-2-fluoro-6-(1H-tetrazol-1-yl)phenyl)-5-oxo-1,2,3,5,8,8a-hexahydroindolizin-3-yl)-1H-imidazol-5-yl)-3-fluoropyridin-2-yl)cyclopropane-1-carbonitrile]
[1]; [3]
  IC50: 29.1 nM
[2]; [4]
  IC50: 0.022 µM

## COC(=O)Nc1ccc(-c2cnc([C@@H]3CCC4CC(c5c(-n6cnnn6)ccc(Cl)c5F)=CC(=O)N43)[nH]2)cc1 (stereo partly drawn) [Example 355, Methyl (4-(2-((3S)-7-(3-chloro-2-fluoro-6-(1H-tetrazol-1-yl)phenyl)-5-oxo-1,2,3,5,8,8a-hexahydroindolizin-3-yl)-1H-imidazol-5-yl)phenyl)carbamate]
[1]; [3]
  IC50: 0.2 nM
[2]; [4]
  IC50: 0.0014 µM

## CNc1nccc(-c2cnc([C@@H]3CC[C@@H]4CC(c5c(-n6cnnn6)ccc(Cl)c5F)=CC(=O)N43)[nH]2)c1F [Example 134, (3S,8aR)-7-(3-chloro-2-fluoro-6-(1H-tetrazol-1-yl)phenyl)-3-(5-(3-fluoro-2-(methylamino)pyridin-4-yl)-1H-imidazol-2-yl)-2,3,8,8a-tetrahydroindolizin-5(1H)-one]
[1]; [3]
  IC50: 0.4 nM
[2]; [4]
  IC50: 0.0011 µM

## [2H]C([2H])([2H])C(=O)Nc1cnc(C(F)(F)F)cc1-c1cnc([C@@H]2CC[C@@H]3CC(c4c(-n5cnnn5)ccc(Cl)c4F)=CC(=O)N32)[nH]1 [Example 243, N-[4-[2-[(3S,8aR)-7-[3-Chloro-2-fluoro-6-(tetrazol-1-yl)phenyl]-5-oxo-2,3,8,8a-tetrahydro-1H-indolizin-3-yl]-1H-imidazol-5-yl]-6-(trifluoromethyl)-3-pyridyl]-2,2,2-trideuterio-acetamide]
[1]; [5]
  IC50: 52 nM
[2]; [4]
  IC50: 0.653 µM

## O=C1C[C@H](c2c(-n3cnnn3)ccc(Cl)c2F)C[C@H]2CC[C@@H](c3ncc(-c4ccnc(CO)c4F)[nH]3)N12 [Example 378, (3S,7R,8aR)-7-(3-chloro-2-fluoro-6-(1H-tetrazol-1-yl)phenyl)-3-(5-(3-fluoro-2-(hydroxymethyl)pyridin-4-yl)-1H-imidazol-2-yl)hexahydroindolizin-5(1H)-one]
[1]; [3]
  IC50: 14.5 nM
[2]; [4]
  IC50: 0.115 µM

## O=C1C=C(c2c(-n3cnnn3)ccc(Cl)c2F)C[C@H]2CC[C@@H](c3nc(F)c(-c4ccnc(-c5ccn[nH]5)c4)[nH]3)N12 (single isomer, unassigned) [Example 31]
[1]; [3]
  IC50: 0.7 nM
[2]; [4]
  IC50: 0.0018 µM

## COCCNC(=O)c1nccc(-c2cnc([C@@H]3CC[C@@H]4CC(c5c(-n6cnnn6)ccc(Cl)c5F)=CC(=O)N43)[nH]2)c1F [Example 180, 4-(2-((3S,8aR)-7-(3-chloro-2-fluoro-6-(1H-tetrazol-1-yl)phenyl)-5-oxo-1,2,3,5,8,8a-hexahydroindolizin-3-yl)-1H-imidazol-5-yl)-3-fluoro-N-(2-methoxyethyl)picolinamide]
[1]; [3]
  IC50: 8.6 nM
[2]; [4]
  IC50: 0.0332 µM

## O=C1C=C(c2c(-n3cc(C(F)(F)F)nn3)ccc(Cl)c2F)C[C@H]2CC[C@@H](c3ncc(-c4ccnc(CO)c4F)[nH]3)N12 [Example 67, (3S,8aR)-7-(3-chloro-2-fluoro-6-(4-(trifluoromethyl)-1H-1,2,3-triazol-1-yl)phenyl)-3-(5-(3-fluoro-2-(hydroxymethyl)pyridin-4-yl)-1H-imidazol-2-yl)-2,3,8,8a-tetrahydroindolizin-5(1H)-one]
[1]; [3]
  IC50: 10.7 nM
[2]; [4]
  IC50: 0.0857 µM

## O=C1C=C(c2cc(Cl)ccc2-n2cnnn2)C(F)(F)C2CC[C@@H](c3ncc(-c4ccnc(CO)c4F)[nH]3)N12 (stereo partly drawn) [Example 56, (3S)-7-(5-chloro-2-(1H-tetrazol-1-yl)phenyl)-8,8-difluoro-3-(5-(3-fluoro-2-(hydroxymethyl)pyridin-4-yl)-1H-imidazol-2-yl)-2,3,8,8a-tetrahydroindolizin-5(1H)-one]
[1]; [3]
  IC50: 35.2 nM
[2]; [4]
  IC50: 0.0592 µM

## O=C1C=C(c2c(-n3cnnn3)ccc(Cl)c2F)C[C@H]2CC[C@H](c3nc(F)c(-c4ccnc(C5(O)CC5)c4F)[nH]3)N12 (single isomer, unassigned) [Example 109]
[1]; [3]
  IC50: 4.8 nM
[2]; [4]
  IC50: 0.0358 µM

## NC(=O)c1ncc(-c2c[nH]c([C@@H]3CC[C@@H]4CC(c5c(-n6cnnn6)ccc(Cl)c5F)=CC(=O)N43)n2)s1 [Example 205, 5-(2-((3S,8aR)-7-(3-Chloro-2-fluoro-6-(1H-tetrazol-1-yl)phenyl)-5-oxo-1,2,3,5,8,8a-hexahydroindolizin-3-yl)-1H-imidazol-4-yl)thiazole-2-carboxamide]
[1]; [3]
  IC50: 3.3 nM
[2]; [4]
  IC50: 0.0125 µM

## CO[C@@H]1C[C@@H](c2nc(-c3ccc(N)nc3F)c[nH]2)N2C(=O)C=C(c3c(-n4cnnn4)ccc(Cl)c3F)CC12 (stereo partly drawn) [Example 327, (1R,3S)-3-(4-(6-Amino-2-fluoropyridin-3-yl)-1H-imidazol-2-yl)-7-(3-chloro-2-fluoro-6-(1H-tetrazol-1-yl)phenyl)-1-methoxy-2,3,8,8a-tetrahydroindolizin-5(1H)-one]
[1]; [3]
  IC50: 0.6 nM
[2]; [4]
  IC50: 0.0095 µM

## O=C1Cc2cc(-c3cnc([C@@H]4CCC5CC(c6c(-n7cnnn7)ccc(Cl)c6F)=CC(=O)N54)[nH]3)ccc2N1 (stereo partly drawn) [Example 314, 5-(2-((3S)-7-(3-Chloro-2-fluoro-6-(1H-tetrazol-1-yl)phenyl)-5-oxo-1,2,3,5,8,8a-hexahydroindolizin-3-yl)-1H-imidazol-5-yl)indolin-2-one]
[1]; [3]
  IC50: 1 nM
[2]; [4]
  IC50: 0.0032 µM

## O=C(Nc1cnccc1-c1c[nH]c([C@@H]2CC[C@H]3CC(c4c(-n5cnnn5)ccc(Cl)c4F)=CC(=O)N32)n1)C1CC1 (relative stereo) [Example 250, N-(4-(24(3S,8aS*)-7-(3-choro-2-fluoro-6-(1H-tetrazol-1-yl)phenyl)-5-oxo-1,2,3,5,8,8a-hexahydroindolizin-3-yl)-1H-imidazol-4-yl)pyridin-3-yl)cyclopropanecarboxamide]
[1]; [5]
  IC50: 0.2 nM
[2]; [4]
  IC50: 0.0007 µM
